Results from paper PMC11879040, “Advancing systemic toxicity risk assessment: Evaluation of a NAM-based toolbox approach” (Toxicological Sciences, 2024).
Like-named read-outs stand apart in the source and are kept apart here.

What was measured:
HepaRG cells = assay: High-throughput transcriptomics (HTTr, TempO-Seq), HepaRG, 24 h; format: cell-based, human; conditions: HepaRG; for pod_httr_bifrost PoD: HTTr BIFROST PoD; for podl_path_minbmd PoD: HTTr minimum pathway BMD(L)
Protocol: (§1) HepG2, HepaRG, and MCF7 cells were treated with each compound for 24 h across a dose range of 7 concentrations and lysed using TempO-Seq lysis buffer (BioSpyder Technologies, proprietary kit, see [Middleton et al. 2022] for method details). Sequencing was performed using TempO-Seq (BioClavis) version 2 of the human whole transcriptome panel and analyzed as described previously in Middleton et al.

human = conditions: cited from earlier work
[1] = biological target: T1, Adenosine receptor A2a, ADORA2A (h) (Homo sapiens, UniProt P29274); assay: IPP ADORA2A binding (agonist radioligand); conditions: control NECA
T1 construct: purchased Eurofins Cerep (SafetyScreen44-based IPP panel)
T1 sequence (P29274 whole entry): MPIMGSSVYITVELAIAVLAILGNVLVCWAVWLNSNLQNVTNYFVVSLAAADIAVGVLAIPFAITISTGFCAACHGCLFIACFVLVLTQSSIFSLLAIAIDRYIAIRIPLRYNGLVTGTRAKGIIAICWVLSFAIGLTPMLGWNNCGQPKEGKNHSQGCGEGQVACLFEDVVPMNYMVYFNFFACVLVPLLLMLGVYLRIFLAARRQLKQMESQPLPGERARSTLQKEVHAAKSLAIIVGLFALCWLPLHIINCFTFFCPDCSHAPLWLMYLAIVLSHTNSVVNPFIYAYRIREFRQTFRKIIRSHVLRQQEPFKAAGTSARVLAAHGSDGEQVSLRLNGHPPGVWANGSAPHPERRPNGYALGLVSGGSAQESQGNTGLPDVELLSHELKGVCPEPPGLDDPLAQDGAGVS

[2] = PBK level L2; single value or median; ref [2],[4],[6],[7],[8],[10],[11],[15],[18],[27],[34]; cited from earlier work
[3] = system: Sodium channel protein type 5 subunit alpha (site 2), SCN5A (r); format: binding, rat
MCF7 cells = assay: High-throughput transcriptomics (HTTr, TempO-Seq), MCF7, 24 h; format: cell-based, human; conditions: MCF-7; for pod_httr_bifrost PoD: HTTr BIFROST PoD; for podl_path_minbmd PoD: HTTr minimum pathway BMD(L)
Protocol: as §1

[4] = system: Thyroid hormone receptor alpha, THRA (h); assay: IPP THRA coactivator recruitment (agonist); format: biochemical, human; conditions: agonist, T3
HepG2 cells [5] = assay: High-throughput transcriptomics (HTTr, TempO-Seq), HepG2, 24 h; format: cell-based, human; conditions: HepG2; for pod_httr_bifrost PoD: HTTr BIFROST PoD; for podl_path_minbmd PoD: HTTr minimum pathway BMD(L)
Protocol: as §1

[6] = biological target: Voltage-dependent L-type Ca2+ channel (dihydropyridine site), CACNA1C (r) (Rattus norvegicus, UniProt P22002); format: binding
Voltage-dependent L-type Ca2+ channel (dihydropyridine site), CACNA1C (r), sequence (P22002 whole entry): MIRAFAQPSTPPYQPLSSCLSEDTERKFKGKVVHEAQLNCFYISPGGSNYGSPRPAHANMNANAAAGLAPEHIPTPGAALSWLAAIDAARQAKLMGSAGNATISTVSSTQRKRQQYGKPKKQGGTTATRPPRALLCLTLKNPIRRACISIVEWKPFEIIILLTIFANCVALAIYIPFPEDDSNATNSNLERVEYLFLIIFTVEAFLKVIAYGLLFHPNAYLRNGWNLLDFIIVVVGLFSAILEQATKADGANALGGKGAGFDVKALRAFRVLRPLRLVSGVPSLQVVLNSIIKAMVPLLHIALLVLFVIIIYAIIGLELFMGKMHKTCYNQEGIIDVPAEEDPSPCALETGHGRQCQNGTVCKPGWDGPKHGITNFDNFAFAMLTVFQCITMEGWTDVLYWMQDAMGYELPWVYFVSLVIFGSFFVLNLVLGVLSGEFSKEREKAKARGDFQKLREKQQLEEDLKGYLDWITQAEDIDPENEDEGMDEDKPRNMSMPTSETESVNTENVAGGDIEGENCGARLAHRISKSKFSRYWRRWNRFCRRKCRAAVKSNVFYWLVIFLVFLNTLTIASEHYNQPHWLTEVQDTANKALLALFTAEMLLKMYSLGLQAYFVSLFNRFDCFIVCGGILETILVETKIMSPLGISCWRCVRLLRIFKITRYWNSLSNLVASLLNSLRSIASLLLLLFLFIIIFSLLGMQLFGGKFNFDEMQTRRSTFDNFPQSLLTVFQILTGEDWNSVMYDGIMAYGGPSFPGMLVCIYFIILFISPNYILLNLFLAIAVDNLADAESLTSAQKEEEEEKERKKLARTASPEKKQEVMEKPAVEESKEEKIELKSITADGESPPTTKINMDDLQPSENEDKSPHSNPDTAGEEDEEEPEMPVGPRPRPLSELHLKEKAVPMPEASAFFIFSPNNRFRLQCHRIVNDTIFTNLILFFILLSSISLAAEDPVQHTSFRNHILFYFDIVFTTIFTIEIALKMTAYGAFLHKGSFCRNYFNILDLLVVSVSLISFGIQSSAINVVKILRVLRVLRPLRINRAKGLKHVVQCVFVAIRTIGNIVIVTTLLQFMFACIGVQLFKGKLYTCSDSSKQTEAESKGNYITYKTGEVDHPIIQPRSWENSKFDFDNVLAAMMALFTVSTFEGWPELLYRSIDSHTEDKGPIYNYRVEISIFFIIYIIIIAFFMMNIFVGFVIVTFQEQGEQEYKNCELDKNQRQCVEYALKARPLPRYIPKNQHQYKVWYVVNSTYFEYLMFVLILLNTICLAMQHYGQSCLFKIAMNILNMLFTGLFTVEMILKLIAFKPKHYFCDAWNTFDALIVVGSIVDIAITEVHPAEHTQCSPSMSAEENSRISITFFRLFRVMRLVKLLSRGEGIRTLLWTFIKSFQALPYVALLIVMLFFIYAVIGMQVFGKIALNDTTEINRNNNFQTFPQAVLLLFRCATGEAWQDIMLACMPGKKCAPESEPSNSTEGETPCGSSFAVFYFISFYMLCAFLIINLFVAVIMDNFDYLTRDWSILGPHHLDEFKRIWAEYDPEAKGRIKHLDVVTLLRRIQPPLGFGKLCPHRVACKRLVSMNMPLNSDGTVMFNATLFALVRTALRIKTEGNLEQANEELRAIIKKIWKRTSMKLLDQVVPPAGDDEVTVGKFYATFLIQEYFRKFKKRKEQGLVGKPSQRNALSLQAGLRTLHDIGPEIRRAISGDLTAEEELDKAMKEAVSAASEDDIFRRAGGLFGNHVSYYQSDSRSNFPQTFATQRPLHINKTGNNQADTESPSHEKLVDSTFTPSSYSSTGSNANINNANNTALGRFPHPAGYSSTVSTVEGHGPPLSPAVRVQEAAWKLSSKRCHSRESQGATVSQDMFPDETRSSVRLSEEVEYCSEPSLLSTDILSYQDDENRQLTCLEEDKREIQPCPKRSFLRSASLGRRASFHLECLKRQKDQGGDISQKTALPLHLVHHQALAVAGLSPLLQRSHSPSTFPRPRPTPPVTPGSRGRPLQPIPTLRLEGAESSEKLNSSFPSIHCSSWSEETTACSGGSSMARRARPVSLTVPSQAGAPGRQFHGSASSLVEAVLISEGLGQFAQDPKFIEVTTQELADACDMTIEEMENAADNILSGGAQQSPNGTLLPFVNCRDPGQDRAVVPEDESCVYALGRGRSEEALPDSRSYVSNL

[7] = system: Glutamate receptor ionotropic NMDA 1 non-selective, GRIN1 (r); conditions: control CGS 19755
[8] = Assignment of risk classifications to benchmark chemical-exposure scenarios; conditions: for risk: from table S1
[9] = system: Gamma-aminobutyric acid receptor subunit alpha-1 BZD site, GABRA1A (r); format: binding, rat; conditions: control diazepam
Tubulin (r) = assay: IPP Tubulin binding; design: species or system rat; conditions: ligand/control Colchicine
[10] = PBK level L2; taken or scaled from references (median where several); ref [6],[7],[10],[19]; cited from earlier work
[11] = system: Potassium Voltage-Gated Channel Kv non-selective, KCNQ1 (r); assay: IPP KCNQ1 binding (antagonist radioligand); design: species or system rat; conditions: control α-dendrotoxin
HepG2 cells [12] = assay: Cell stress panel (CSP), 24 h, 8 concentrations, BIFROST global PoD; format: cell-based; conditions: HepG2; cell stress panel PoD
Protocol: Compounds were tested using the previously developed cell stress panel ([Hatherell et al. 2020]) and the expanded biomarker panel outlined in Middleton et al. HepG2 cells were treated with all compounds for 24 h across 8 concentrations prior to biomarker analysis. The same plate layout and number of replicates (3 biological and 2 technical) were used as previously for each assay within the panel.

[13] = system: 63 targets with known safety liabilities; assay: In vitro pharmacological profiling (IPP) panel, screening at 10 or 100 µM and dose response, minimum IC50/AC50; format: biochemical; conditions: lowest AC50 across IPP panel (systemic targets); cell_type -; read-out: ipp_lowest_ac50_systemic PoD
[14] = cited from earlier work
[15] = biological target: Potassium voltage-gated channel subfamily H member 2 hERG, KCNH2 (h) (Homo sapiens, UniProt Q12809); conditions: [3H] Dofetilide, control Terfenadine
Potassium voltage-gated channel subfamily H member 2 hERG, KCNH2 (h), sequence (Q12809 whole entry): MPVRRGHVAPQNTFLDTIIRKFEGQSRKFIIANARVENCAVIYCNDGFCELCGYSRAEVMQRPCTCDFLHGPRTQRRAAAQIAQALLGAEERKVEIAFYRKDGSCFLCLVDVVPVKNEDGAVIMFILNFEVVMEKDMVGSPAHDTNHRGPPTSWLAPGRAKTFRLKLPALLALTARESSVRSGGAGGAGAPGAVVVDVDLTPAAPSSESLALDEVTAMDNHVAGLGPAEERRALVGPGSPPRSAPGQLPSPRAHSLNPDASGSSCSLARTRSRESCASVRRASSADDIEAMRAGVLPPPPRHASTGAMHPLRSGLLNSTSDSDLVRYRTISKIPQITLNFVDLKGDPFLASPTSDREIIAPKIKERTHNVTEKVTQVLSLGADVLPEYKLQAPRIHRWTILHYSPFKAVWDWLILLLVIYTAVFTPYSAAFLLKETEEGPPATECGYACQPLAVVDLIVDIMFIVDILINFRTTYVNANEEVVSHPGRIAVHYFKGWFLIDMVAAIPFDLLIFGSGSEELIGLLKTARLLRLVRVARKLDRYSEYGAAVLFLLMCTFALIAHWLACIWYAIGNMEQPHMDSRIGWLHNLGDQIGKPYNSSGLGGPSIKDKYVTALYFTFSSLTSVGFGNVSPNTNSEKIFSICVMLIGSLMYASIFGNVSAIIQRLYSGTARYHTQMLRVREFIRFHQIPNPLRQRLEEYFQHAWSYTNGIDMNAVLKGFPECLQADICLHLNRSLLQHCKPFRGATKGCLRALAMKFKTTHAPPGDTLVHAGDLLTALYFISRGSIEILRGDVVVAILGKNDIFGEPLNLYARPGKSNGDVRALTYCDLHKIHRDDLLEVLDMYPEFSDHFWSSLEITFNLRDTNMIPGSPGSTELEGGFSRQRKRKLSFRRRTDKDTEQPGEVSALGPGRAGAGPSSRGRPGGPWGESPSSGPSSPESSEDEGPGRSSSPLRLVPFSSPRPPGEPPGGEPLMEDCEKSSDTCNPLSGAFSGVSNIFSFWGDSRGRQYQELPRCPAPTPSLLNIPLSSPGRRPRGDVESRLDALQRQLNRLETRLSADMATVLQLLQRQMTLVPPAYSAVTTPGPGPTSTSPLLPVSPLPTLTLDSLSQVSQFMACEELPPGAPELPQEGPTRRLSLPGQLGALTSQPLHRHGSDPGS

[16] = biological target: T2, Estrogen receptor, ER1 (h) (Homo sapiens, UniProt P03372); assay: IPP ER1 coactivator recruitment (agonist); format: biochemical; conditions: estriol
T2 construct: purchased Eurofins Cerep (SafetyScreen44-based IPP panel)
T2 sequence (P03372 1-595): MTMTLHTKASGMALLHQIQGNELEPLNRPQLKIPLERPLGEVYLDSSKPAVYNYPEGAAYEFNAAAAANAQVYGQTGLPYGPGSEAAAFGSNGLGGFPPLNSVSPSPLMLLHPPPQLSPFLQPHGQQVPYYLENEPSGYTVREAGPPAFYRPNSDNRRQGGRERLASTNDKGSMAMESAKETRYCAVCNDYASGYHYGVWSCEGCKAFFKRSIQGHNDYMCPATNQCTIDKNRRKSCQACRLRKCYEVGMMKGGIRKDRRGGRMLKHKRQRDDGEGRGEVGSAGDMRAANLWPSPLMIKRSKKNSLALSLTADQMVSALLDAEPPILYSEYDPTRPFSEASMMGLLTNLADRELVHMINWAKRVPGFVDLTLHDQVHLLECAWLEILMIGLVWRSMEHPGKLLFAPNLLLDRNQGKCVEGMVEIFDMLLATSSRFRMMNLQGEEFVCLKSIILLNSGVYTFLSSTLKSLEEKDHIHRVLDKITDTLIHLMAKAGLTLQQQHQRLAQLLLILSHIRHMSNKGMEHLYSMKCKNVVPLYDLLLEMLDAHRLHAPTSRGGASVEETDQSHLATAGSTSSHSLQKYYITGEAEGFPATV

[17] = biological target: T2, Estrogen receptor, ER1 (h); assay: IPP ER1 coactivator recruitment (antagonist); format: biochemical; conditions: estriol
dog = conditions: 52 weeks, ref ToxRefDB/Paul-Friedman et al. (2020)/regulatory opinions; cited from earlier work
rat = conditions: rat; 7 days; ref ToxRefDB/Paul-Friedman et al. (2020)/regulatory opinions; cited from earlier work
[18] = human
[19] = 100 uM, * denotes assay interference (2-Amino-6-chloro-4-nitrophenol, HC Red 3)
[20] = IPP screening at 10 uM, control veratridine

Compound	pod_httr_bifrost PoD (HepaRG cells) [µM]	podl_path_minbmd PoD (HepaRG cells) [µM]	Specific binding ([1]; IPP screening at 100 uM) [%]	Fup [2] [%]	pod_httr_bifrost PoD (MCF7 cells) [µM]	podl_path_minbmd PoD (MCF7 cells) [µM]	IPP screening %, Coactivator recruitment [4, 19] [%]	pod_httr_bifrost PoD (HepG2 cells [5]) [µM]	podl_path_minbmd PoD (HepG2 cells [5]) [µM]	Specific binding ([7]; IPP screening at 100 uM) [%]	Specific binding ([9]; IPP screening at 100 uM) [%]	IPP screening %, Specific binding (Tubulin (r); 100 uM) [%]	Intrinsic Liver Clearance [10] [L/h]	Specific binding ([11]; IPP screening at 100 uM) [%]	pod_cell_stress PoD (HepG2 cells [12]) [µM]	AC50 [13] [µM]	Specific binding ([1]; IPP screening at 10 uM) [%]	Specific binding [3, 20] [%]	IPP screening %, Specific binding ([15]; 10 uM) [%]	IPP screening %, Coactivator recruitment ([4]; 10 uM) [%]	further results
CCOC(=O)c1ccc(N)cc1 [Benzocaine, Ethyl 4-aminobenzoate]	103.552	413.121	36.2	36.7	0.8705	19.4739	2.0	9.489	242.367	11.5	-9.1	15.0	7799.2	3.6	47.784	6					adverse event reports related to methaemaglobinemia (human; of the 218 adverse event reports identified by Moore et al, ref [9]): Of the 218 adverse event reports identified by Moore et al, 136 were related to methaemaglobinemia with 2 cases resulting in deaths and 107 resulting in serious events.; Specific binding [3]: -0.8%; Specific binding [6]: 10.5%; Risk Classification ([8]; Dermal 20% in Gel): High risk; risk ([8]; Oral, 22mg/kg is the safety dose, Solution, Exp1): 1
CCN(CC)C(=O)c1cccc(C)c1 [DEET, N,N-Diethyl-3-methylbenzamide]	24.7921	567.13	20.5		67.2542	670.53	0.0	16.9912	582.029	4.4	8.9	-14.0		-4.9	29.817	53.7					NOAEL ([14]; 2-gen study, alpha-2-u nephropathy not relevant for humans, ref https://doi.org/10.1016/B978-0-12-374367-1.00098-7): Lowest human-relevant NOAEL was from a subchronic study. NOAEL of 25 mkd from 2-gen study appears to be based on alpha-2-u nephropathy which is not relevant for humans (https://doi.org/10.1016/B978-0-12-374367-1.001-7); PoD (NOAEL) ([14]; species '-', 364 days, ref ToxRefDB/Paul-Friedman et al. (2020)/regulatory opinions): 100 mg/kg bw/day; Specific binding ([3]; IPP screening at 100 uM, control veratridine): 11.7%; IPP screening %, Specific binding ([15]; 100 uM): -12.0%; IPP screening %, Coactivator recruitment [16, 19]: 2.0%; IPP screening %, Coactivator recruitment [17, 19]: 0.0%; risk ([8]; Dermal, 15%, Sun lotion, Exp1): 0
N#CC(CCc1ccc(Cl)cc1)(Cn1cncn1)c1ccccc1 (stereo not drawn) [Fenbuconazole, 4-(4-Chlorophenyl)-2-phenyl-2-[(1H-1,2,4-triazol-1-yl)methyl]butanenitrile]	0.6247	4.705		2	1.305	15.4204		0.5034	16.5577				10900		2.477	2.86	34.0	100.8	79.9	2.0	PoD (NOAEL) (dog): 0.38 mg/kg bw/day; Specific binding ([6]; IPP screening at 10 uM, control nitrendipine): 97.8%; Specific binding ([7]; IPP screening at 10 uM): 38.6%; Risk Classification ([8]; Oral, residue, 0.006 mg/kg bw/day): Low risk; Risk Classification ([8]; Oral, residue, 73% of 0.006 mg/kg bw/day): Low risk; risk ([8]; Oral, 73% ADI of 0.006 mg/kg bw/day, Food residue, Exp3): 0; risk ([8]; Oral, ADI 0.006 mg/kg bw/day, Food residue, Exp2): 0; Specific binding ([9]; IPP screening at 10 uM): 3.5%; IPP screening %, Specific binding (Tubulin (r); 10 uM): -20.0%; Specific binding ([11]; IPP screening at 10 uM): 3.0%
O=CCCCC=O [Glutaraldehyde, Pentanedial]																	-3.4	13.2	-1.1	3.0	NOAEL (human; 1 year human study, ref not given): The lowest NOAEL from a rat repeat-dose study. Not there is also a 1 year human study with a NOAEL of 3 mkd.; IPP screening %, Coactivator recruitment ([16]; 10 uM): 2.0%; PoD (NOAEL) (rat): 1 mg/kg bw/day; IPP screening %, Coactivator recruitment ([17]; 10 uM): -9.0%; Specific binding ([7]; IPP screening at 10 uM): -4.1%; Specific binding ([9]; IPP screening at 10 uM): -5.0%; Specific binding ([11]; IPP screening at 10 uM): 5.2%; risk [18]: 0
